Assay [1] is filed under the species Rattus norvegicus. The assay is described as follows: Inhibition concentration against DPPH radical scavenging activity […] was determined. It is filed as functional. For orientation: The DPPH test is a chemical assay of radical scavenging.
The species named for assay [2] is Rattus norvegicus. The experiment in a line: Inhibition concentration against lipid peroxidation initiated by [Fe2+] and L-ascorbic acid in rat brain homogenates. It is filed as functional.

The structures appear in SMILES notation.

Broadly, the IC50 is the concentration that gives 50% inhibition. The low end stands for higher potency, the high end for lower potency. As for `COc1cc2c(cc1O)C(=O)CC(C(=O)O)O2` (stereo unspecified), the IC50 in the assay listed under Rattus norvegicus [1] was 104 µM; in the assay listed under Rattus norvegicus [2], above 300 µM.
On the same counts, the results for `COc1cc2c(cc1O)C(=O)CC(C(N)=O)O2` (stereo unspecified) are 214 µM and above 300 µM.
For `Cc1c(C)c2c(c(C)c1O)CCC(C)(C(=O)O)O2` (stereo unspecified) [TROLOX], the IC50 in the assay filed under Rattus norvegicus [1] amounted to 18.2 µM; in the assay listed under Rattus norvegicus [2], 166 µM.
In the same order, the values of `COc1cc2c(cc1O)C(=O)CC(C(=O)Nc1ccccc1)O2` (stereo unspecified) are 119 µM and 293 µM.
Regarding `COc1cc2c(cc1O)CCC(C(=O)Nc1ccccc1)O2` (stereo unspecified), the figures for the IC50 in the assay listed under Rattus norvegicus [1] and in the assay filed under Rattus norvegicus [2] were 24.9 µM and 6.9 µM, respectively.
Turning to `COc1cc2c(cc1O)CCC(C(=O)O)O2` (stereo unspecified), the IC50 in the assay filed under Rattus norvegicus [1] is 16.8 µM; in the assay filed under Rattus norvegicus [2], above 300 µM.
On to `COc1cc2c(cc1O)CCC(C(=O)NCc1ccccc1)O2` (stereo unspecified), for which the IC50 in the assay listed under Rattus norvegicus [1] turned out to be 21.7 µM; in the assay listed under Rattus norvegicus [2], 16.6 µM.
In the same order, the values of `COc1cc2c(cc1O)CCC(C(=O)Nc1ccc([N+](=O)[O-])cc1)O2` (stereo unspecified) are 40.1 µM and 3.8 µM.
In the same order, the values of `COc1cc2c(cc1O)C(=O)CC(C(=O)NCc1ccccc1)O2` (stereo unspecified) are 118 µM and above 300 µM.
As for `CCCNC(=O)C1CC(=O)c2cc(O)c(OC)cc2O1` (stereo unspecified), the results for the IC50 in the assay filed under Rattus norvegicus [1] and in the assay listed under Rattus norvegicus [2] were 80.8 µM and above 300 µM, respectively.
`CCCCNC(=O)C1CCc2cc(O)c(OC)cc2O1` (stereo unspecified): the IC50 in the assay listed under Rattus norvegicus [1] is 24.8 µM; in the assay filed under Rattus norvegicus [2] it was 51.3 µM.
In the same order, the values of `CCCNC(=O)C1CCc2cc(O)c(OC)cc2O1` (stereo unspecified) are 42.9 µM and 119 µM.
For the molecule `CCCCNC(=O)C1CC(=O)c2cc(O)c(OC)cc2O1` (stereo unspecified), the IC50 is 66.4 µM in the assay listed under Rattus norvegicus [1] and 177 µM in the assay filed under Rattus norvegicus [2].
